Experimental data taken from paper PMC8745330, “Aromatic Sulfonamides including a Sulfonic Acid Tail: New Membrane Impermeant Carbonic Anhydrase Inhibitors for Targeting Selectively the Cancer-Associated Isoforms” (International Journal of Molecular Sciences, 2021).
Several values for one entry are separate records, joined by “and”; a condition that tells them apart may be missing. Identical values can stand only once.

How the values were obtained:
hCA I = molecular target: T1, hCA I (Homo sapiens, UniProt P00915); test: stopped flow CO2 hydrase assay, CA I; assay type: biochemical; conditions: mean from 3 different assays, errors ±5–10%
T1 construct: made in house
Method: (§1) An Applied Photophysics stopped-flow instrument was used for assaying the CA catalyzed CO2 hydration activity. Phenol red (at a concentration of 0.2 mM) was used as an indicator, working at the absorbance maximum of 557 nm, with 20 mM HEPES (pH 7.5) as buffer, and 20 mM Na2SO4 (for maintaining constant the ionic strength), following the initial rates of the CA-catalyzed CO2 hydration reaction for a period of 10–100 s. The CO2 concentrations ranged from 1.7 to 17 mM for the determination of the kinetic parameters and inhibition constants. For each inhibitor, at least six traces of the initial 5–10% of the reaction were used for determining the initial velocity. The uncatalyzed rates were determined in the same manner and subtracted from the total observed rates. Stock solutions of inhibitor (0.1 mM) were prepared in distilled–deionized water, and dilutions up to 0.01 nM were done thereafter with the assay buffer. Inhibitor and enzyme solutions were preincubated together for 45 min at room temperature prior to assay in order to allow for the formation of the E–I complex. The inhibition constants were obtained by non-linear least-squares methods using PRISM 3 and the Cheng–Prusoff equation, as reported earlier, representing the mean from at least three different determinations. […] All CA isoforms were recombinant ones obtained in-house, as reported earlier.

hCA II = molecular target: T2, hCA II (Homo sapiens, UniProt P00918); test: stopped flow CO2 hydrase assay, CA II; assay type: biochemical; conditions: mean from 3 different assays, errors ±5–10%
T2 construct: made in house
Method: as §1

hCA IV = molecular target: T3, hCA IV (Homo sapiens, UniProt P22748); test: stopped flow CO2 hydrase assay, CA IV; assay type: biochemical; conditions: mean from 3 different assays, errors ±5–10%
T3 construct: made in house
Method: as §1

hCA IX = molecular target: T4, hCA IX (Homo sapiens, UniProt Q16790); test: stopped flow CO2 hydrase assay, CA IX; assay type: biochemical; conditions: for Selectivity index (SI) CA I/CA IX / Selectivity index (SI) CA II/CA IX: ratio between KI values; for Ki: stopped flow CO2 hydrase assay, mean from 3 different assays, errors ±5–10%
T4 construct: made in house
Method: as §1

hCA XII = molecular target: T5, hCA XII (Homo sapiens, UniProt O43570); test: stopped flow CO2 hydrase assay, CA XII; assay type: biochemical; conditions: for Selectivity index (SI) CA I/CA XII / Selectivity index (SI) CA II/CA XII: ratio between KI values; for Ki: stopped flow CO2 hydrase assay, mean from 3 different assays, errors ±5–10%
T5 construct: made in house
Method: as §1

Caco-2 cells = test: Caco-2 cell viability by MTS; assay type: cell-based; conditions: 50 µM
Method: (§2) The colorectal adenocarcinoma cell line Caco-2 was purchased from American Tissue Type Culture Collection (Manassas, VA, USA) and cultured in Dulbecco’s modified Eagle’s medium (DMEM) (Thermo Fisher Scientific, Rodano, Milan, Italy) with 20% fetal bovine serum (FBS) (Thermo Fisher Scientific, Rodano, Milan, Italy) and 100 U/mL penicillin–streptomycin (Thermo Fisher Scientific, Rodano, Milan, Italy) in 5% CO2 at 37 °C. Cell viability was determined by MTS after 2 h of exposure to the aliphatic sulfonate CAIs at 50 µM concentration, as previously described.

[1] = Caco-2 cell viability by MTS; assay type: cell-based; conditions: human; Caco-2 cells, 50 μM, 2 h of exposure, MTS; data not shown
Method: as §2

T5 sequence (O43570 25-354): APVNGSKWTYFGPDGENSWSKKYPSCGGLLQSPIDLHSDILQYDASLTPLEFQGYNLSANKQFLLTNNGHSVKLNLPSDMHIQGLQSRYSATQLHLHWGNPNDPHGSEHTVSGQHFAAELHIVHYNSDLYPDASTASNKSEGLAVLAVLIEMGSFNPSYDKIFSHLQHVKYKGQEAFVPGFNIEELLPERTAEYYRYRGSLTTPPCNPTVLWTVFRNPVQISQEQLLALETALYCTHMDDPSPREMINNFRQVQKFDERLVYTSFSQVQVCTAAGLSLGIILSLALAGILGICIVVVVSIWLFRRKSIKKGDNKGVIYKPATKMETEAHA
T3 sequence (P22748 19-312): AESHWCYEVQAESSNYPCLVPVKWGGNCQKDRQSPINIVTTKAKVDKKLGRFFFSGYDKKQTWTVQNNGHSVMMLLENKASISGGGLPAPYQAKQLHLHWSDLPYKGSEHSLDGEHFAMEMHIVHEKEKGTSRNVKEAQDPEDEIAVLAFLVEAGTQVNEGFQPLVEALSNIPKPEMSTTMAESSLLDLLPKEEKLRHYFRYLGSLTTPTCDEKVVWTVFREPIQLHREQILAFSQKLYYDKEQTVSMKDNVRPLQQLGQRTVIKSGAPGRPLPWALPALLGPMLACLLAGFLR
T1 sequence (P00915 whole entry): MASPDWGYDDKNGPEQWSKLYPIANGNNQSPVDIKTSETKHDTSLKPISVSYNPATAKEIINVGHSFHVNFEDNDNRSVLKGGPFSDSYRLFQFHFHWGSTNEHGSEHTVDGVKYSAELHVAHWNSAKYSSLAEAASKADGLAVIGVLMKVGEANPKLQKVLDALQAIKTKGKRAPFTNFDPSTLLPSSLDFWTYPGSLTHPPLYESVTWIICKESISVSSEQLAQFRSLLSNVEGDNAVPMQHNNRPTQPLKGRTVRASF

Row | Ki (hCA I) [nM] | Ki (hCA II) [nM] | Ki (hCA IV) [nM] | Selectivity index (SI) CA I/CA IX (hCA IX) | Selectivity index (SI) CA II/CA IX (hCA IX) | Ki (hCA IX) [nM] | Selectivity index (SI) CA I/CA XII (hCA XII) | Selectivity index (SI) CA II/CA XII (hCA XII) | Ki (hCA XII) [nM] | melting point [°C] | Compound | cell viability (Caco-2 cells) [%] | viability at 2 h, 50 µM [1] [%]
1 | 150 | 18.8 | 408 | 17 | 2.2 | 8.6 | 3.4 | 0.44 | 43.1 | – | Sodium 3-(4-(4-sulfamoylphenyl)-1H-1,2,3-triazol-1-yl)butane-1-sulfonate [Compound 41] | > 95 | –
2 | 2910 | 364 | 883 | 36 | 4.5 | 79.9 | 855 | 107 | 3.4 | – | Sodium 3-(4-(((4-sulfamoylphenyl)amino)methyl)-1H-1,2,3-triazol-1-yl)butane-1-sulfonate [Compound 43] | > 95 | –
3 | 51.6 | 5.4 | 36.7 | 0.95 | 0.10 | 54.4 | 1.1 | 0.11 | 49 | > 300 | NS(=O)(=O)c1ccc(NC(=O)Nc2ccc(OCc3cn(CCCS(=O)(=O)[O-])nn3)cc2)cc1.[Na+] [Compound 38, Sodium 3-(4-((4-(3-(4-sulfamoylphenyl)ureido)phenoxy)methyl)-1H-1,2,3-triazol-1-yl)propane-1-sulfonate] | – | > 95
4 | 458 | 4.3 | 56.3 | 143 | 1.3 | 3.2 | 48 and 48.2 | 0.45 | 9.5 | > 300 | NS(=O)(=O)c1ccc(C(=O)NCc2cn(CCCS(=O)(=O)[O-])nn2)cc1.[Na+] [Compound 33, Sodium 3-(4-((4-sulfamoylbenzamido)methyl)-1H-1,2,3-triazol-1-yl)propane-1-sulfonate] | – | > 95
